{"source": "patent US20120088667A1", "about": "“SAFENING AGENT” (priority 2009, published 2012)", "key": {"Winter Wheat cv Limerick": {"tested_on": "Winter Wheat cv Limerick", "assay": "Safening of fertilisers, pot trial: phytotoxicity and vigour scores, winter wheat", "type": "in vivo", "conditions": "in vivo", "text": "(§1) The safening system and the fertilizer were applied either simultaneously or sequentially.\n(§2) Sprayed: mid-tillering phase (GS23). Winter Wheat: cv Limerick, sown 4 Jun. […] Sprayed: mid-tillering phase (GS23). Lettuce: cv Set, sown 10 Jul. 2008, at one seed per pot, in John Innes No 1 compost. Date of spraying: 30 July; Dates of measurement: 7 August, 14 August, 28 August. Sprayed: 2 true leaf stage."}, "Lettuce cv Set": {"tested_on": "Lettuce cv Set", "assay": "Safening of fertilisers, pot trial: phytotoxicity and vigour scores, lettuce", "type": "in vivo", "text": "as §1, §2"}, "[1]": {"tested_on": "Oilseed rape cv Excalibur", "conditions": "for Greenness (0-9) (9 = Deeper Green) + 14 Days / Vigour (0-9) (9 = Most Vigour) + 14 days / Greenness (0-9) + 28 Days / Vigour (0-9) + 28 Days: score 0-9", "text": "Safening systems were applied to crops of oilseed rape and winter treated with various herbicides (Bifenox (with insecticide), Carbetamide, Propaquizafop, Chlorotoluron, Isoproturon, Flumioxazin). The safening system and the herbicide were applied to the crops either simultaneously or sequentially.\nOilseed rape: cv Excalibur, sown 26 Apr. 2008, at two seeds per 9 cm pot, sown in normal pH multi-purpose compost. Date of spraying: 6 June; Dates of measurement/scoring: 13 June, 20 June, 5 July. Winter wheat: cv Alchemy, sown 23 Apr. 2008, at seven seeds per 9 cm pot, sown in normal pH multi-purpose compost. Date of spraying: 24 May; Dates of measurement/scoring: 31 May, 7 June, 21 June. SAF: at least one from class (f) each at <3 g/l, plus at least one from class (c).\nStatistical Layout: Randomised Complete Block trials, under glasshouse conditions, United Kingdom."}, "Glycine max (Soybean)": {"tested_on": "Glycine max (Soybean)", "assay": "Root nodulation and safening, soybean, compost of normal pH (Example 7.2)", "conditions": "compost of normal pH (6.5)", "text": "(§3) The safener/safening system and the fertiliser were applied to the crops either simultaneously or sequentially.\n(§4) Co=100% Cobalt Sulphate (20 g per litre and per hectare). FF1=20 g per litre Cobalt Sulphate (as per Co above) plus “Miracle-Gro” at xl recommended rate (applied at 15 g per 2.5 sq metres). Miracle-Gro contains: 24% N, 4% P, 13% K, plus 0.02% B, 0.03% Cu, 0.19% Fe, 0.05% Mn, 0.001% Mo and 0.03% Zn. FF2=20 g per litre Cobalt Sulphate plus Miracle-Gro at ×2 recommended rate. SAF: at least one from class (f) each at <3 g/l, plus at least one from class (c).\nDates as per Example 7.1 above, but sown in compost of normal pH (6.5). Each treatment represents the mean values for 12 plants, within four replicates. Sowing density 110 kg/ha. Standard inoculant applied at sowing."}, "NAVY BEAN cv Mogex": {"tested_on": "NAVY BEAN cv Mogex", "assay": "Root nodulation and safening, navy bean, compost of low pH (Example 7.3)", "conditions": "compost of low pH (5.0-5.5)", "text": "as §3, §4\nNAVY BEAN cv Mogex. Scored/Counted+28 Days after Spraying. Sown in Compost of low pH (5.0-5.5) on 29 Apr. 2008. Spray Date (VC)=27 May, V1 Date=16 June. Scored/Measured on 11 July. Each treatment represents the mean value of 12 plants, within four replicates. No inoculum applied."}, "PEA cv Ragtime": {"tested_on": "PEA cv Ragtime", "assay": "Root nodulation, rooting and safening, pea, compost of low pH (Examples 7.5 and 7.7)", "text": "as §3, §4\nPEA—TRIAL 5—cv Ragtime. Scored/Counted+28 Days after Spraying. Sown in Compost of Low pH (5.0-5.5) on 28 Apr. 2008. Spray Date (VC)=26 May, V1 Date=14 June. Scored/Measured on 9 July. […] No inoculum applied.\nSowing details etc as per Example 7.5."}, "[2]": {"tested_on": "Maize cv Sundance (i.e. not Roundup Ready)", "conditions": "no glyphosate"}, "[3]": {"conditions": "herbicide Bifenox (with insecticide), Table 3.1"}, "[4]": {"conditions": "herbicides Carbetamide and Propaquizafop, Table 3.2"}, "[5]": {"conditions": "+28 days, herbicide Bifenox (with insecticide), Table 3.1"}, "[6]": {"conditions": "+28 days, herbicides Carbetamide and Propaquizafop, Table 3.2"}, "[7]": {"conditions": "compost of low pH (5.0-5.5), V1, score 0-9"}, "[8]": {"conditions": "low pH compost, application at V1, 0-9 scale"}}, "note": "Like-named read-outs stand apart in the source and are kept apart here."}
{"smiles": "CC(=O)Nc1ccc(O)cc1", "note": "[AC, N-(4-hydroxypheyl)acetamide, reference compound]", "values": [{"measurement": "Phytotoxicity (0-9) (0 = Dead) + 14 Days", "setting": "Winter Wheat cv Limerick", "value": 7.0}, {"measurement": "Vigour (0-9) (9 = Most Vigour) + 14 days", "setting": "Lettuce cv Set; 336 h", "value": 8.0}, {"measurement": "Vigour (0-9) + 28 Days", "setting": "Lettuce cv Set; 672 h", "value": 8.0}, {"measurement": "Vigour (0-9) (9 = Most Vigour) + 14 days", "setting": "Lettuce cv Set; Table 1.8, lettuce, KP/ATS, score 0-9, +14 days", "value": 8.0}, {"measurement": "Vigour (0-9) + 28 Days", "setting": "Lettuce cv Set; Table 1.8, lettuce, KP/ATS, score 0-9, +28 days", "value": 8.0}, {"measurement": "Vigour (0-9) (9 = Most Vigour) + 14 days", "setting": "Lettuce cv Set; Table 1.9, lettuce, general fertilisers, score 0-9, 9 = Most Vigour, +14 days", "value": 8.0}, {"measurement": "Vigour (0-9) + 28 Days", "setting": "Lettuce cv Set; Table 1.9, lettuce, general fertilisers, score 0-9, +28 days", "value": 8.0}, {"measurement": "Phytotoxicity (0-9) (0 = Dead) + 14 Days", "setting": "Lettuce cv Set; in vivo", "value": 7.0}, {"measurement": "Phytotoxicity (0-9) (0 = Dead) + 28 Days", "setting": "Lettuce cv Set; in vivo", "value": 6.5}, {"measurement": "Phytotoxicity (0-9) + 28 Days", "setting": "[1]; score 0-9, 0 = dead, +28 days, herbicides Carbetamide and Propaquizafop, Table 3.2", "value": 8.0}, {"measurement": "Greenness (0-9) (9 = Deeper Green) + 14 Days", "setting": "[1]; [3]", "value": 8.0}, {"measurement": "Vigour (0-9) (9 = Most Vigour) + 14 days", "setting": "[1]; [3]", "value": 8.0}, {"measurement": "Greenness (0-9) (9 = Deeper Green) + 14 Days", "setting": "[1]; [4]", "value": 8.0}, {"measurement": "Vigour (0-9) (9 = Most Vigour) + 14 days", "setting": "[1]; [4]", "value": 8.0}, {"measurement": "Greenness (0-9) + 28 Days", "setting": "[1]; [5]", "value": 8.0}, {"measurement": "Vigour (0-9) + 28 Days", "setting": "[1]; [5]", "value": 8.0}, {"measurement": "Greenness (0-9) + 28 Days", "setting": "[1]; [6]", "value": 8.0}, {"measurement": "Vigour (0-9) + 28 Days", "setting": "[1]; [6]", "value": 8.0}, {"measurement": "Nodules Per Plant (V1)", "setting": "Glycine max (Soybean); V1, mean of 12 plants", "value": 29.9}, {"measurement": "Nodulation Score (0-9) (V1)", "setting": "Glycine max (Soybean); V1, score 0-9", "value": 5.5}, {"measurement": "Phyto-Toxicity Score (0-9) (V1)", "setting": "Glycine max (Soybean); V1, score 0-9", "value": 8.0}, {"measurement": "Vigour Score (0-9) (V1)", "setting": "Glycine max (Soybean); V1, score 0-9", "value": 6.5}, {"measurement": "Nodules Per Plant (VC)", "setting": "Glycine max (Soybean); VC", "value": 32.0}, {"measurement": "Nod Score (0-9) (VC)", "setting": "Glycine max (Soybean); VC, score 0-9", "value": 5.7}, {"measurement": "Nodules Per Plant (V1)", "setting": "NAVY BEAN cv Mogex; V1, +28 days after spraying, no inoculum", "value": 19.3}, {"measurement": "Nodulation Score (0-9) (V1)", "setting": "NAVY BEAN cv Mogex; V1, score 0-9", "value": 3.1}, {"measurement": "Phyto-Toxicity Score (0-9) (V1)", "setting": "NAVY BEAN cv Mogex; V1, score 0-9", "value": 5.6}, {"measurement": "Vigour Score (0-9) (V1)", "setting": "NAVY BEAN cv Mogex; V1, score 0-9", "value": 6.0}, {"measurement": "Nodules Per Plant (VC)", "setting": "NAVY BEAN cv Mogex; VC", "value": 22.1}, {"measurement": "Nod Score (0-9) (VC)", "setting": "NAVY BEAN cv Mogex; VC, score 0-9", "value": 3.5}, {"measurement": "Nodules Per Plant (V1)", "setting": "PEA cv Ragtime; compost of low pH (5.0-5.5), V1, +28 days after spraying, no inoculum", "value": 16.7}, {"measurement": "Nodulation Score (0-9) (V1)", "setting": "PEA cv Ragtime; [7]", "value": 5.0}, {"measurement": "Phyto-Toxicity Score (0-9) (V1)", "setting": "PEA cv Ragtime; [7]", "value": 5.2}, {"measurement": "Vigour Score (0-9) (V1)", "setting": "PEA cv Ragtime; [7]", "value": 5.1}, {"measurement": "Nodules Per Plant (VC)", "setting": "PEA cv Ragtime; compost of low pH (5.0-5.5), VC", "value": 17.3}, {"measurement": "Nod Score (0-9) (VC)", "setting": "PEA cv Ragtime; compost of low pH (5.0-5.5), VC, score 0-9", "value": 5.2}, {"measurement": "Nodules Per Plant (V1)", "setting": "PEA cv Ragtime; low pH compost, application at V1 (data from Example 7.5)", "value": 16.7}, {"measurement": "Nodulation Score (0-9) (V1)", "setting": "PEA cv Ragtime; [8]", "value": 5.0}, {"measurement": "Phyto-Toxicity Score (0-9) (V1)", "setting": "PEA cv Ragtime; [8]", "value": 5.2}, {"measurement": "Rooting Score (0-9) (V1)", "setting": "PEA cv Ragtime; [8]", "value": 4.2}, {"measurement": "Phytotoxicity (0-9) (0 = Dead) + 41 days", "setting": "[2]; scale 0-9, 0=dead, 9=least phytotoxicity, 41 days", "value": 8.0}, {"measurement": "Vigour (0-9) + 14 Days", "setting": "[2]; scale 0-9, 0=least vigour, 9=most vigour, 14 days", "value": 8.0}, {"measurement": "Vigour (0-9) + 28 Days", "setting": "[2]; scale 0-9, 0=least vigour, 9=most vigour, 28 days", "value": 8.0}, {"measurement": "Vigour (0-9) + 41 Days", "setting": "[2]; scale 0-9, 0=least vigour, 9=most vigour, 41 days", "value": 8.0}]}
